Structures are written as SMILES.

As a reminder, the IC50 is the midpoint of a concentration-inhibition curve.

In the assay the target is T1, Human CGRP1 Receptor (Homo sapiens, UniProt O60894+Q16602).
T1 construct: endogenous in cells; host or cells: SK-N-MC cells (membrane homogenate)
T1 sequence (Q16602 23-461): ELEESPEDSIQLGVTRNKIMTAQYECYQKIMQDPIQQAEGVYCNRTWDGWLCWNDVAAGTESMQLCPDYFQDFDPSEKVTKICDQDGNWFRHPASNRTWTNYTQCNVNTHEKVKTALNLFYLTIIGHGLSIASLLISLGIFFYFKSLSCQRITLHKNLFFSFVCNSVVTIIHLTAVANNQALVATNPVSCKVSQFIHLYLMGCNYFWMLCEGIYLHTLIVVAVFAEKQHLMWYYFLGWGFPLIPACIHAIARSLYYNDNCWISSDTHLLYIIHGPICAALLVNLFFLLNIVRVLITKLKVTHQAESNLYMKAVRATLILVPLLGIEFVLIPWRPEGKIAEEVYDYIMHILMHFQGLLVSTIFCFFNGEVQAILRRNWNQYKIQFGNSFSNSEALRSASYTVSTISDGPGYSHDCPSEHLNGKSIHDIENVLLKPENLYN
T1 sequence (O60894 27-148): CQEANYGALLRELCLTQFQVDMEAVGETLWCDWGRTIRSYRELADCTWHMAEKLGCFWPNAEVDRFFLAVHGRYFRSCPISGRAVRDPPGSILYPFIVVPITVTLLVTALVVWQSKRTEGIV
Description: CGRP Binding Assay ([125I]-CGRP radioligand displacement, SK-N-MC membrane homogenate). The note with it: [125I]-CGRP displacement, SK-N-MC homogenate, room temperature 2 h; read-out: Human CGRP1 Receptor IC50. On the technique in general: Loss of bound radioactivity is the signal in a displacement assay; it reports binding, not function.
Take `Cc1cc(CC(NC(=O)N2CCC(N3Cc4ccccc4NC3=O)CC2)c2ncc(Br)[nH]2)cc2cn[nH]c12` (racemic) [Example 86, (±)-N-(1-(4-Bromo-1H-imidazol-2-yl)-2-(7-methyl-1H-indazol-5-yl)ethyl)-4-(2-oxo-1,2-dihydroquinazolin-3(4H)-yl)piperidine-1-carboxamide]: the IC50 is under 0.01 µM.

Take `Cc1cc(CC(NC(=O)N2CCC(N3Cc4ccccc4NC3=O)CC2)c2nc(Br)c(Br)[nH]2)cc2cn[nH]c12` (racemic) [Example 87, (±)-N-(1-(4,5-Dibromo-1H-imidazol-2-yl)-2-(7-methyl-1H-indazol-5-yl)ethyl)-4-(2-oxo-1,2-dihydroquinazolin-3(4H)-yl)piperidine-1-carboxamide]: the IC50 is under 0.01 µM.

Turning to `Cc1cc(CC(NC(=O)N2CCC(N3Cc4ccccc4NC3=O)CC2)c2ncc(Br)n2Cc2cc(F)cc(F)c2)cc2c[nH]nc12` (racemic) [Example 88, (±)-N-(1-(1-(3,5-Difluorobenzyl)-5-bromo-1H-imidazol-2-yl)-2-(7-methyl-2H-indazol-5-yl)ethyl)-4-(2-oxo-1,2-dihydroquinazolin-3(4H)-yl)piperidine-1-carboxamide], the IC50 is under 0.01 µM.

For the compound `Cc1cn(Cc2cccc(F)c2)c(C(Cc2cc(C)c3[nH]ncc3c2)NC(=O)N2CCC(N3Cc4ccccc4NC3=O)CC2)n1` (racemic) [Example 89, (±)-N-(1-(1-(3-Fluorobenzyl)-4-methyl-1H-imidazol-2-yl)-2-(7-methyl-1H-indazol-5-yl)ethyl)-4-(2-oxo-1,2-dihydroquinazolin-3(4H)-yl)piperidine-1-carboxamide], the IC50 is under 0.01 µM.

With `Cc1c[nH]c(C(Cc2cc(C)c3[nH]ncc3c2)NC(=O)N2CCC(N3Cc4ccccc4NC3=O)CC2)n1` (racemic) [Example 90, (±)-N-(1-(4-Methyl-1H-imidazol-2-yl)-2-(7-methyl-1H-indazol-5-yl)ethyl)-4-(2-oxo-1,2-dihydroquinazolin-3(4H)-yl)piperidine-1-carboxamide], the IC50 fell in the range of 0.1 to 1 µM.

In the case of `Cc1cc(CC(NC(=O)N2CCC(N3Cc4ccccc4NC3=O)CC2)c2nccn2Cc2cccnc2)cc2cn[nH]c12` (racemic) [Example 91, (±)-N-(2-(7-Methyl-1H-indazol-5-yl)-1-(1-(pyridin-3-ylmethyl)-1H-imidazol-2-yl)ethyl)-4-(2-oxo-1,2-dihydroquinazolin-3(4H)-yl)piperidine-1-carboxamide], the IC50 is under 0.01 µM.

In the case of `Cc1cc(CC(NC(=O)N2CCC(N3Cc4ccccc4NC3=O)CC2)c2nccn2Cc2ccccn2)cc2cn[nH]c12` (racemic) [Example 92, (±)-N-(2-(7-Methyl-1H-indazol-5-yl)-1-(1-(pyridin-2-ylmethyl)-1H-imidazol-2-yl)ethyl)-4-(2-oxo-1,2-dihydroquinazolin-3(4H)-yl)piperidine-1-carboxamide], the IC50 is under 0.01 µM.

Turning to `Cc1cc(Cn2ccnc2C(Cc2cc(C)c3[nH]ncc3c2)NC(=O)N2CCC(N3Cc4ccccc4NC3=O)CC2)cc(Cl)n1` (racemic) [Example 93, (±)-N-(1-(1-((2-Chloro-6-methylpyridin-4-yl)methyl)-1H-imidazol-2-yl)-2-(7-methyl-1H-indazol-5-yl)ethyl)-4-(2-oxo-1,2-dihydroquinazolin-3(4H)-yl)piperidine-1-carboxamide], the IC50 was under 0.01 µM.

In the case of `Cc1cc(Cn2ccnc2C(Cc2cc(C)c3[nH]ncc3c2)NC(=O)N2CCC(N3Cc4ccccc4NC3=O)CC2)ccn1` (racemic) [Example 94, (±)-N-(2-(7-Methyl-1H-indazol-5-yl)-1-(1-((2-methylpyridin-4-yl)methyl)-1H-imidazol-2-yl)ethyl)-4-(2-oxo-1,2-dihydroquinazolin-3(4H)-yl)piperidine-1-carboxamide], the IC50 was under 0.01 µM.

Regarding `Cc1cc(CC(NC(=O)N2CCC(c3cc4ccccc4[nH]c3=O)CC2)c2cc3ccccc3cn2)cc2cn[nH]c12` (stereo not shown) [Example 36, N-(1-(Isoquinolin-3-yl)-2-(7-methyl-1H-indazol-5-yl)ethyl)-4-(2-oxo-1,2-dihydroquinolin-3-yl)piperidine-1-carboxamide], the IC50 is under 0.01 µM.
